{"source": "paper PMC11237012", "about": "“Synthesis and preliminary evaluation of novel PET probes for GSK-3 imaging” (Scientific Reports, 2024)", "assay": "In vivo PET imaging, uptake in brain and liver", "parameters": "species or system wild-type FVB/NJ mice", "procedure": "To evaluate the imaging potential and brain uptake of PET probe [^18F]2, we selected FVB/NJ wild-type mice and performed radiotracer uptake studies via tail vein injection of [^18F]2 followed by dynamic imaging upto 60 min and static imaging at 120 min post-injection. Ex-vivo biodistribution was performed immediately after 120 min static imaging. Uptake of [^18F]2 was assessed in the brain and liver of wild-type FVB/NJ mice by PET imaging at different time points post-injection with and without co-administration of 2 (reference compound as a self-blocking agent). Representative transverse sectional PET images of the brain at different time points are shown in Fig. 6 and representative coronal and sagittal sectional PET images of the liver and whole-body PET images are shown in SI-Figs. S17 and S18, respectively. It was encouraging to observe brain uptake of PET probe [^18F]2 with a standard uptake value (SUV) of 0.92 ± 0.28 (n = 6) at 5 min post-injection. Approximately 80% of PET probe [^18F]2 was cleared from the wild-type mice brain in the first 30 min. The uptake of [^18F]2 in the brain was lower than in the liver at all time points post-injection. […] The contrasting response in uptake of [^18F]2 in the brain in the presence of 2 could be attributed to the peripheral effect. […] This is also evident from the higher concentration of 2 in the blood of the animals in which [^18F]2 was co-administered with 2 as compared to administration of only [^18F]2 (Figs. 6, 7 and 8 and SI-Table S2, SI-Figs. S17, S18). A similar observation was also reported by Lindberg et al. 2021 with [^11C]verubulin in rats, where co-injection of verubulin increased the uptake of [^11C]verubulin in the brain and was attributed to the saturation of the enzymes (e.g. cytochrome P450 enzymes) that metabolize the tracer in the liver, leading to increased bioavailability. It is also plausible that the isonicotinamide class of compounds are substrate for cytochrome P450 enzymes.\nUptake of PET probe [^18F]2 (1.40 ± 0.61 MBq) was assessed with and without co-administration of 2 in 10–13-week-old wild-type FVB/NJ mice (The Jackson Laboratory, Bar Harbor, ME) after tail vein injection followed by PET imaging at 5 min, 10 min, 15 min, 20 min, 25 min, 30 min, 40 min, 50 min, 60 min and 120 min post injection. Additionally, ex vivo biodistribution was performed at 5 min, 10 min and 120 min post tail vein injection. To prepare [^18F]2 formulation for injection, 0.76 ± 0.48 µg (2.01 ± 1.27 nmol) of [^18F]2 was formulated in 10% ethanol/ 90% isotonic saline. For the blocking experiment, 20.21 ± 1.63 µg (53.75 ± 4.33 nmol) of 2 in DMSO was added to [^18F]2 (Am of 87.27 ± 77.26 (n = 13) GBq/µmole, having 0.46 ± 0.31 µg or 1.23 ± 0.83 nmol of nonradioactive 2 in it) in the final formulation volume of ~ 100 µL. This study had 12 wild type FVB/NJ male mice with body weight 31.8 ± 2.7 g and 10 wild type FVB/NJ female mice with body weight 27.0 ± 3.6 g at the time of imaging. All the animals were anesthetized for tail vein injection and PET imaging using an induction dose of 3% isoflurane and a maintenance dose of 2–3% isoflurane, which was administered via isoflurane vaporizer. All anesthetized animals were kept warm during imaging using a heat supported imaging chamber. For ex vivo biodistribution studies, animals were sacrificed at 5 min, 10 min and 120 min post-injection by cervical dislocation and tissues were harvested for gamma counting. For PET imaging studies, each animal underwent a 60 min dynamic PET scan (Framing Sequence: 1 × 10 s, 4 × 15 s, 8 × 30 s, 5 × 60 s, 4 × 300 s, 3 × 600 s) immediately post injection followed by 10 min static PET scan at 120 min post-injection on small animal micro-PET/X-ray system, Genesys 4 (Sofie BioSystems, Dulles, VA, USA). The PET images were reconstructed using Genesys 4 imaging software installed on the imaging system. […]"}
{"smiles": "O=C(Nc1cnccc1-c1ccc([18F])cc1)c1ccnc(NC(=O)C2CC2)c1", "note": "[[^18F]2]", "values": [{"measurement": "Uptake (SUV) by PET image analysis", "setting": "brain, 5 min post-injection, [^18F]2 + 20 µg of 2", "value": "0.93 ± 0.06"}, {"measurement": "Uptake (SUV) by PET image analysis", "setting": "brain, 5 min post-injection, [^18F]2 alone", "value": "0.92 ± 0.28"}, {"measurement": "Change of brain uptake on co-administration of compound 2", "setting": "brain, 5 min time point", "value": "no difference in uptake"}, {"measurement": "Uptake (SUV) by PET image analysis", "setting": "brain, 10 min post-injection, [^18F]2 + 20 µg of 2", "value": "0.57 ± 1.06"}, {"measurement": "Uptake (SUV) by PET image analysis", "setting": "brain, 10 min post-injection, [^18F]2 alone", "value": "0.38 ± 0.06"}, {"measurement": "Change of brain uptake on co-administration of compound 2", "setting": "brain, 10 min time point", "value": 1.5, "unit": "fold"}, {"measurement": "Change of brain uptake on co-administration of compound 2", "setting": "brain, 15 min, 20 min, 25 min and 30 min time points", "value": "twofold"}, {"measurement": "Uptake (SUV) by PET image analysis", "setting": "brain, 15 min post-injection, [^18F]2 + 20 µg of 2", "value": "0.50 ± 0.06"}, {"measurement": "Uptake (SUV) by PET image analysis", "setting": "brain, 15 min post-injection, [^18F]2 alone", "value": "0.24 ± 0.03"}, {"measurement": "Uptake (SUV) by PET image analysis", "setting": "brain, 20 min post-injection, [^18F]2 + 20 µg of 2", "value": "0.43 ± 0.06"}, {"measurement": "Uptake (SUV) by PET image analysis", "setting": "brain, 20 min post-injection, [^18F]2 alone", "value": "0.21 ± 0.02"}, {"measurement": "Uptake (SUV) by PET image analysis", "setting": "brain, 25 min post-injection, [^18F]2 + 20 µg of 2", "value": "0.40 ± 0.06"}, {"measurement": "Uptake (SUV) by PET image analysis", "setting": "brain, 25 min post-injection, [^18F]2 alone", "value": "0.19 ± 0.03"}, {"measurement": "Uptake (SUV) by PET image analysis", "setting": "brain, 30 min post-injection, [^18F]2 + 20 µg of 2", "value": "0.36 ± 0.06"}, {"measurement": "Uptake (SUV) by PET image analysis", "setting": "brain, 30 min post-injection, [^18F]2 alone", "value": "0.19 ± 0.04"}, {"measurement": "Uptake (SUV) by PET image analysis", "setting": "brain, 40 min post-injection, [^18F]2 + 20 µg of 2", "value": "0.31 ± 0.06"}, {"measurement": "Uptake (SUV) by PET image analysis", "setting": "brain, 40 min post-injection, [^18F]2 alone", "value": "0.18 ± 0.04"}, {"measurement": "Uptake (SUV) by PET image analysis", "setting": "brain, 50 min post-injection, [^18F]2 + 20 µg of 2", "value": "0.28 ± 0.06"}, {"measurement": "Uptake (SUV) by PET image analysis", "setting": "brain, 50 min post-injection, [^18F]2 alone", "value": "0.17 ± 0.03"}, {"measurement": "Uptake (SUV) by PET image analysis", "setting": "brain, 60 min post-injection, [^18F]2 + 20 µg of 2", "value": "0.26 ± 0.06"}, {"measurement": "Uptake (SUV) by PET image analysis", "setting": "brain, 60 min post-injection, [^18F]2 alone", "value": "0.16 ± 0.03"}, {"measurement": "Uptake (SUV) by PET image analysis", "setting": "brain, 120 min post-injection, [^18F]2 + 20 µg of 2", "value": "0.18 ± 0.01"}, {"measurement": "Uptake (SUV) by PET image analysis", "setting": "brain, 120 min post-injection, [^18F]2 alone", "value": "0.09 ± 0.01"}, {"measurement": "Uptake (SUV) by PET image analysis", "setting": "liver, 5 min post-injection, [^18F]2 + 20 µg of 2", "value": "5.24 ± 1.46"}, {"measurement": "Uptake (SUV) by PET image analysis", "setting": "liver, 5 min post-injection, [^18F]2 alone", "value": "5.66 ± 1.18"}, {"measurement": "Uptake (SUV) by PET image analysis", "setting": "liver, 10 min post-injection, [^18F]2 + 20 µg of 2", "value": "5.86 ± 0.51"}, {"measurement": "Uptake (SUV) by PET image analysis", "setting": "liver, 10 min post-injection, [^18F]2 alone", "value": "7.43 ± 0.66"}, {"measurement": "Uptake (SUV) by PET image analysis", "setting": "liver, 15 min post-injection, [^18F]2 + 20 µg of 2", "value": "5.49 ± 0.28"}, {"measurement": "Uptake (SUV) by PET image analysis", "setting": "liver, 15 min post-injection, [^18F]2 alone", "value": "7.89 ± 0.59"}, {"measurement": "Uptake (SUV) by PET image analysis", "setting": "liver, 20 min post-injection, [^18F]2 + 20 µg of 2", "value": "5.19 ± 0.27"}, {"measurement": "Uptake (SUV) by PET image analysis", "setting": "liver, 20 min post-injection, [^18F]2 alone", "value": "7.88 ± 0.60"}, {"measurement": "Uptake (SUV) by PET image analysis", "setting": "liver, 25 min post-injection, [^18F]2 + 20 µg of 2", "value": "4.93 ± 0.30"}, {"measurement": "Uptake (SUV) by PET image analysis", "setting": "liver, 25 min post-injection, [^18F]2 alone", "value": "7.61 ± 0.65"}, {"measurement": "Uptake (SUV) by PET image analysis", "setting": "liver, 30 min post-injection, [^18F]2 + 20 µg of 2", "value": "4.76 ± 0.33"}, {"measurement": "Uptake (SUV) by PET image analysis", "setting": "liver, 30 min post-injection, [^18F]2 alone", "value": "7.34 ± 0.77"}, {"measurement": "Uptake (SUV) by PET image analysis", "setting": "liver, 40 min post-injection, [^18F]2 + 20 µg of 2", "value": "4.55 ± 0.23"}, {"measurement": "Uptake (SUV) by PET image analysis", "setting": "liver, 40 min post-injection, [^18F]2 alone", "value": "6.91 ± 0.91"}, {"measurement": "Uptake (SUV) by PET image analysis", "setting": "liver, 50 min post-injection, [^18F]2 + 20 µg of 2", "value": "4.31 ± 1.15"}, {"measurement": "Uptake (SUV) by PET image analysis", "setting": "liver, 50 min post-injection, [^18F]2 alone", "value": "6.40 ± 1.04"}, {"measurement": "Uptake (SUV) by PET image analysis", "setting": "liver, 60 min post-injection, [^18F]2 + 20 µg of 2", "value": "4.09 ± 1.16"}, {"measurement": "Uptake (SUV) by PET image analysis", "setting": "liver, 60 min post-injection, [^18F]2 alone", "value": "5.95 ± 1.12"}, {"measurement": "Uptake (SUV) by PET image analysis", "setting": "liver, 120 min post-injection, [^18F]2 + 20 µg of 2", "value": "3.19 ± 0.37"}, {"measurement": "Uptake (SUV) by PET image analysis", "setting": "liver, 120 min post-injection, [^18F]2 alone", "value": "2.78 ± 1.40"}, {"measurement": "Fraction of probe cleared from the brain", "setting": "wild-type mice brain, in the first 30 min", "value": "Approximately 80%"}]}
